In patent US5670358A, “Method for inhibiting chymopapain and papain enzyme activity with polysaccharides of animal origin” (Baxter International Inc., priority 1995, dated 1997):

Key:
[1] = system: trypsin; assay: Trypsin protease activity, hydrolysis of BAPNA synthetic substrate (absorbance 415 nm); format: biochemical; details: for Trypsin % Inhibited: 37° C., Tricine buffer 50 mM, 10 mM CaCl2
Protocol: (§1) The invention will be better understood by reference to the following nonlimiting examples which illustrate the use of the animal-derived polysaccharide materials of the present invention in inhibiting various enzymes. In these examples the activities of chymopapain and papain were determined by assay using BAPNA, N-benzoyl-L-arginine-p-nitroanilide synthetic substrate by measuring the increase in absorbance at 415 nm. The activity of clostripain was determined by assay using BAEE, N-benzoyl-L-arginine ethyl ester synthetic substrate by measuring the increase in absorbance at […]. The activity of trypsin was determined by assay using BAPNA.
(§2) Protease activity was determined by measuring the reaction rates for the hydrolysis of synthetic substrates for the enzymes trypsin, chymopapain, papain, and clostripain. The increase in absorbance at 415 nm was used for the measurement of the reaction rates for trypsin, chymopapain and papain upon a BAPNA substrate. The increase in absorbance at 253 nm was used for the measurement of the reaction rates for clostripain. Trypsin, chymopapain and papain activities were determined at 37° C. in Tricine buffer, 50 mM, containing 10 mM CaCl2. Clodytipain activity was determined at room temperature. Chymopapain, papain, and clostripain were activated with L-cysteine or dithiothreitol reducing agent prior to assay. Concentration of reducing agent in the substrate solution was maintained at 5 mM by addition of reducing agent to the substrate solution.
(§3) Glycogen was dissolved in the assay buffer to a final concentration of 1%. The percentage inhibition was obtained from the ratio of enzyme activity in the presence of inhibitor to the activity of a control to which no inhibitor was added.

[2] = system: chymopapain; assay: Chymopapain protease activity, hydrolysis of BAPNA synthetic substrate (absorbance 415 nm); format: biochemical, papaya; details: for Chymopapain % Inhibited: 37° C., Tricine buffer 50 mM, 10 mM CaCl2
Protocol: as §1, §2, §3

[3] = system: clostripain; assay: Clostripain protease activity, hydrolysis of BAEE synthetic substrate (absorbance 253 nm); format: biochemical; details: for Clostripain % Inhibited: room temperature
Protocol: as §1, §2, §3

[4] = system: papain; assay: Papain protease activity, hydrolysis of BAPNA synthetic substrate (absorbance 415 nm); format: biochemical, papaya; details: 37° C., Tricine buffer 50 mM, 10 mM CaCl2
Protocol: as §1, §2
The percentage inhibition was obtained from the ratio of enzyme activity in the presence of inhibitor to the activity of a control to which no inhibitor was added.

[5] = inhibitor concentration 1%, listed as glycogen
[6] = inhibitor concentration 0.5%, listed as hyaluronic acid

Row | Substance | effectiveness in inhibiting trypsin relative to chymopapain and papain ([1]; inhibitor concentration 0.5%) | Trypsin % Inhibited ([1]; inhibitor concentration 0.5%) [%] | Chymopapain % Inhibited ([2]; inhibitor concentration 0.5%) [%] | effectiveness in inhibiting clostripain relative to chymopapain and papain ([3]; inhibitor concentration 0.5%) | Clostripain % Inhibited ([3]; inhibitor concentration 0.5%) [%] | Papain % Inhibited ([4]; inhibitor concentration 0.5%) [%] | Trypsin % Inhibited ([1]; inhibitor concentration 1%) [%] | Trypsin % Inhibited [1, 5] | effectiveness as inhibitor of chymopapain and papain activity relative to trypsin activity ([2]; inhibitor concentration 1%) | Chymopapain % Inhibited ([2]; inhibitor concentration 1%) [%] | Clostripain % Inhibited ([3]; inhibitor concentration 1%) [%] | Clostripain % Inhibited [3, 5] | Papain % Inhibited ([4]; inhibitor concentration 1%) [%] | Trypsin % Inhibited [1, 6] | Chymopapain % Inhibited [2, 6] | Clostripain % Inhibited [3, 6] | Papain % Inhibited [4, 6]
1 | Desulfated heparin | less than one-half as effective | 4.1 | 8.8 | about one-tenth as effective | 0.8 | 9.8 | – | – | – | – | – | – | – | – | – | – | –
2 | Glycogen | – | – | – | – | – | – | 1.1 | about 1% | 10-20 times | 17 | 0 | no inhibiting effect | 12.5 | – | – | – | –
3 | Hyaluronic acid | – | 0 | 34.2 | – | 0 | 35.8 | – | – | – | – | – | – | – | no inhibiting effect | effective | no inhibiting effect | effective
